In EP4759814A1, “TRICYCLIC COMPOUND AND USE THEREOF AS MAT2A INHIBITOR” (SK Biopharmaceuticals Co., Ltd., priority 2023, dated 2025):
Like-named read-outs stand apart in the source and are kept apart here.

What was measured:
MAT2A = target: T1, MAT2A (Homo sapiens, UniProt P31153); experiment: MAT2A inhibitory activity, colorimetric phosphate detection (PiColorLock) enzyme assay; assay type: biochemical; details: Test Condition 1 or 2 (not stated which per compound); absorbance at 630 nm
T1 construct: purchased BPS Bioscience (USA) 71401
Description: In vitro assay: Methionine and adenosine triphosphate (ATP) are converted into S-adenosylmethionine (SAM) and inorganic phosphate (pi) via the catalytic action of methionine adenosyltransferase 2A (MAT2A). The produced pi is detected by the PiColorLock™ Phosphate Detection Reagent, which is a colorimetric assay, and the activity of MAT2A can be evaluated according to the amount of pi generated during the enzyme reaction. Each compound was evaluated under Test Condition 1 or 2 as described below.
• Concentration of MAT2A inhibitor: maximum concentration of 50 µM, 5-fold dilution (7 groups in total) • MAT2A concentration: 12 ng/µL • ATP and Met concentration: 100 µM, 80 µM
• Concentration of MAT2A inhibitor: maximum concentration of 1 µM, 3-fold dilution (7 groups in total) • MAT2A concentration: 4 ng/µL • ATP and Met concentration: 300 µM, 150 µM • Reagents: Methionine (catalog number M5308) and ATP (catalog number A2383) were purchased from Sigma-Aldrich (USA). MAT2A (catalog number 71401) was purchased from BPS Bioscience (USA), and PiColorLock™ Phosphate Detection Reagent (catalog number 303-0030) was purchased from Novus (USA).
Assay buffer composition: 50 mM Tris-HCl pH 8.0, 50 mM KCI, 15 mM MgCl2, 0.3 mM EDTA, 0.005 % (w/v) BSA
Experimental procedure: Each compound was diluted 5-fold or 3-fold based on the maximum concentration (5 mM or 1 mM or 0.1 mM) using DMSO. The diluted compounds were diluted 20-fold using assay buffer, and then mixed at a volume ratio of 1:2 with MAT2A (30 ng/µL or 10 ng/µL) diluted with assay buffer and treated for 30 minutes at room temperature. The negative control group is a group untreated with both the MAT2A enzyme and the compound according to an embodiment of the present application, and the positive control group is a group treated only with the MAT2A enzyme and untreated with the compound according to an embodiment of the present application.
In each well of a 384-well plate, 30 µL of the mixed solution and 20 µL of a 1:1 mixed solution of ATP (0.5 mM or 1.5 mM) and Met (0.4 mM or 0.75 mM) were mixed and then treated for 1 hour at room temperature. After the enzyme reaction, 13 µL of a 100:1 mixed solution of PiColorLockTM and Accelerator was treated in each well and reacted for 5 minutes at room temperature. After treating 5 µL of Stabilizer in each well and reacting for 25 minutes at room temperature, the absorbance at 630 nm was measured using SpectraMax M4 (Molecular Devices, USA) to calculate the IC50 value of the compound.
Analysis method: The enzyme activity (%) of each experimental group was calculated as {(average O.D. of compound-treated group - average O.D. of negative control group)/(average O.D. of positive control group - average O.D. of negative control group)} * 100. After preparing a dose-response curve (4-parameter) using the enzyme activity according to the treatment concentration of each compound in GraphPad Prism 9, the 50 % of enzyme inhibitory activity value (IC50) was calculated through non-linear regression analysis. The IC50 results measured for the MAT2A activity inhibitory ability of the compounds according to an embodiment of the present application are shown in Table 2 (+++: more than 1 to 100 nM, ++: more than 100 to 1,000 nM, +: more than 1,000 to 10,000 nM, -: more than 10,000 nM).

[1] = system: HCT116 (MTAP WT) cell line; experiment: Cell proliferation inhibition in wild-type control cells, WST-1 assay; assay type: cell-based; details: maximum concentration 10 µM, read-out: HCT116 WT (IC50, cell proliferation inhibited by 50%)
Description: (§1) The HCT116 (MTAP del) cell line, which is a colorectal cancer cell line with deletion of MTAP gene, was treated with a compound according to an embodiment of the present application as a MAT2A inhibitor, and after culturing for 120 hours, the change in the number of cells was measured with a WST-1 assay reagent. The WST-1 assay is an assay that measures the number of cells by measuring the generation of a chromogenic substance called formazan from tetrazolium salts by intracellular mitochondrial dehydrogenase. In addition, as a control group, a wild-type colorectal cancer HCT116 (MTAP WT) cell line containing the MTAP gene was used to perform the experiment in the same manner as the experimental group.
(§2) Cell lines and reagents: HCT116 (MTAP WT (catalog number HD PAR-034), MTAP del (catalog number HD R02-033)) cell lines were purchased from Horizon Discovery (USA), and RPMI1640 medium (catalog number 22400-093), FBS (Fetal Bovine serum, catalog number 16000044), and Penicillin/Streptomycin (catalog number 15140-122) were purchased from GIBCO (USA). WST-1 (catalog number EZ-BULK150) was purchased from Dogen (Korea).
(§3) Experimental procedure: HCT116 (MTAP WT, MTAP del) cell lines were dispensed into a 96-well plate at a concentration of 1,000 cells/well in RPMI1640 culture medium containing 10% FBS and 1% Penicillin/Streptomycin, and allowed to attach for 24 hours. When the cells were attached to the plate, the drug was diluted 4-fold from a maximum concentration of 10 µM and treated on the cells. After 120 hours of drug treatment, 20 µL of WST-1 solution was treated for 2 hours, and absorbance at 450 nm was measured using SpectraMax M4 (Molecular Devices). Data analysis was calculated by taking the DMSO control group value as 100%. For the IC50 value, the concentration at which cell proliferation is inhibited by 50% was calculated through interpolation using a 4-parameter fit of the dose-response curve using the GraphPad Prism 8.4.3 program. The cancer cell proliferation inhibitory ability and selectivity in MTAP-deficient cancer cells of the compounds according to an embodiment of the present application are described in Table 3 (+++: 1 to 100 nM, ++: more than 100 to 1,000 nM, +: more than 1 to 10 µM, -: more than 10 µM).

[2] = system: HCT116 (MTAP del) cell line; experiment: Cell proliferation inhibition in MTAP-deficient cancer cells, WST-1 assay; assay type: cell-based; details: maximum concentration 10 µM, read-out: HCT116 MTAP^-/- (IC50, cell proliferation inhibited by 50%)
Description: as §1, §2, §3

[3] = Homo sapiens, HCT-116, 120 h, 120 hours of drug treatment
[4] = Homo sapiens, HCT-116, 120 hours of drug treatment

T1 sequence (P31153 whole entry): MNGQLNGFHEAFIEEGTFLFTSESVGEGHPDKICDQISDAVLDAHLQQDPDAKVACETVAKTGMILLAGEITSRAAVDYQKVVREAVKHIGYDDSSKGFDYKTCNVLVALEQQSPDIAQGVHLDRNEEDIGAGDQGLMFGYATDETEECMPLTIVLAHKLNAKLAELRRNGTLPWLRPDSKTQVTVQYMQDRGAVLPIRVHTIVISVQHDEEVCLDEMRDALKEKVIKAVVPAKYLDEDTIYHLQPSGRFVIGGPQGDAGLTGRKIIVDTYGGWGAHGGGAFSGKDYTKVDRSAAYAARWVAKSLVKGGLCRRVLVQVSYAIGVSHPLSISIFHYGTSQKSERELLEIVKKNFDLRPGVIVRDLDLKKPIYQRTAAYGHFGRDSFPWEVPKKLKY

SMILES	IC50 (MAT2A) [µM]	IC50 ([1]; 120 hours of drug treatment) [µM]	IC50 ([2]; 120 hours of drug treatment) [µM]	IC50 [2, 3] [µM]	IC50 [1, 4] [µM]	IC50 [2, 4] [µM]
Cc1ccccc1-n1c(=O)c2nccn2c2ccc(Cl)cc21 (atropisomer, axis not shown; (Ra)) [Example 20, (Ra)-7-chloro-5-(o-tolyl)imidazo[1,2-a]quinoxalin-4(5H)-one]	> 10	> 10	> 10	–	–	–
Cc1ccccc1-n1c(=O)c2nccn2c2ccc(Cl)cc21 (atropisomer, axis not shown; (Sa)) [Example 21, (Sa)-7-chloro-5-(o-tolyl)imidazo[1,2-a]quinoxalin-4(5H)-one]	0.001 to 0.1	> 10	0.001 to 0.1	–	–	–
Cc1ncccc1-n1c(=O)c2nccn2c2cc(Cl)c(Br)cc21 (atropisomer, axis not shown; (Sa)) [Example 81, (Sa)-7-bromo-8-chloro-5-(2-methylpyridin-3-yl)imidazo[1,2-a]quinoxalin-4(5H)-one]	–	1 to 10	–	0.001 to 0.1	–	–
Cc1cc2c(cc1C(F)(F)F)n(-c1cccnc1C)c(=O)c1nccn12 (atropisomer, axis not shown; (Sa)) [Example 95, (Sa)-8-methyl-5-(2-methylpyridin-3-yl)-7-(trifluoromethyl)imidazo[1,2-a]quinoxalin-4(5H)-one]	–	> 10	–	0.001 to 0.1	–	–
Cc1ncccc1-n1c(=O)c2nccn2c2cc(Cl)c(C(F)(F)F)cc21 (atropisomer, axis not shown; (Sa)) [Example 98, (Sa)-8-chloro-5-(2-methylpyridin-3-yl)-7-(trifluoromethyl)imidazo[1,2-a]quinoxalin4(5H)-one]	–	> 10	–	0.001 to 0.1	–	–
CCc1ncccc1-n1c(=O)c2nccn2c2cc(Cl)c(C(F)(F)F)cc21 (atropisomer, axis not shown; (Sa)) [Example 112, (Sa)-8-chloro-5-(2-ethylpyridin-3-yl)-7-(trifluoromethyl)imidazo[1,2-a]quinoxalin4(5H)-one]	–	–	–	> 10	–	–
Cc1ccccc1-n1c(=O)c2nccn2c2ccc(Cl)cc21 [Example 1, 7-chloro-5-(o-tolyl)imidazo[1,2-a]quinoxalin-4(5H)-one]	0.1 to 1	–	–	–	> 10	0.1 to 1
O=c1c2nccn2c2ccc(Cl)cc2n1-c1ccccc1 [Example 2, 7-chloro-5-phenylimidazo[1,2-a]quinoxalin-4(5H)-one]	0.1 to 1	–	–	–	> 10	1 to 10
CCc1ccccc1-n1c(=O)c2nccn2c2ccc(Cl)cc21 [Example 3, 7-chloro-5-(2-ethylphenyl)imidazo[1,2-a]quinoxalin-4(5H)-one]	0.1 to 1	–	–	–	> 10	0.1 to 1
Cc1cccc(-n2c(=O)c3nccn3c3ccc(Cl)cc32)c1C [Example 4, 7-chloro-5-(2,3-dimethylphenyl)imidazo[1,2-a]quinoxalin-4(5H)-one]	0.1 to 1	–	–	–	> 10	0.1 to 1
CC(C)c1ccccc1-n1c(=O)c2nccn2c2ccc(Cl)cc21 [Example 5, 7-chloro-5-(2-isopropylphenyl)imidazo[1,2-a]quinoxalin-4(5H)-one]	0.1 to 1	–	–	–	> 10	1 to 10
Cc1c(F)cccc1-n1c(=O)c2nccn2c2ccc(Cl)cc21 [Example 6, 7-chloro-5-(3-fluoro-2-methylphenyl)imidazo[1,2-a]quinoxalin-4(5H)-one]	0.1 to 1	–	–	–	1 to 10	0.1 to 1
O=c1c2nccn2c2ccc(Cl)cc2n1-c1ccccc1C(F)(F)F [Example 7, 7-chloro-5-(2-(trifluoromethyl)phenyl)imidazo[1,2-a]quinoxalin-4(5H)-one]	0.1 to 1	–	–	–	> 10	1 to 10
Cc1cc(F)ccc1-n1c(=O)c2nccn2c2ccc(Cl)cc21 [Example 8, 7-chloro-5-(4-fluoro-2-methylphenyl)imidazo[1,2-a]quinoxalin-4(5H)-one]	1 to 10	–	–	–	> 10	> 10
Cc1ccc(F)cc1-n1c(=O)c2nccn2c2ccc(Cl)cc21 [Example 9, 7-chloro-5-(5-fluoro-2-methylphenyl)imidazo[1,2-a]quinoxalin-4(5H)-one]	> 10	–	–	–	> 10	> 10
Cc1c(F)cccc1-n1c(=O)c2nccn2c2ccc(C(F)(F)F)cc21 [Example 10, 5-(3-fluoro-2-methylphenyl)-7-(trifluoromethyl)imidazo[1,2-a]quinoxalin-4(5H)-one]	0.001 to 0.1	–	–	–	0.1 to 1	0.001 to 0.1
Cc1c(Cl)cccc1-n1c(=O)c2nccn2c2ccc(Cl)cc21 [Example 11, 7-chloro-5-(3-chloro-2-methylphenyl)imidazo[1,2-a]quinoxalin-4(5H)-one]	0.1 to 1	–	–	–	0.1 to 1	0.001 to 0.1
Cc1c(F)cccc1-n1c(=O)c2nccn2c2ccc(C3CC3)cc21 [Example 13, 7-cyclopropyl-5-(3-fluoro-2-methylphenyl)imidazo[1,2-a]quinoxalin-4(5H)-one]	0.1 to 1	–	–	–	> 10	0.1 to 1
COc1ccc2c(c1)n(-c1cccc(F)c1C)c(=O)c1nccn12 [Example 14, 5-(3-fluoro-2-methylphenyl)-7-methoxyimidazo[1,2-a]quinoxalin-4(5H)-one]	0.1 to 1	–	–	–	> 10	0.1 to 1
CCOc1cc(C(F)(F)F)cc2c1n1ccnc1c(=O)n2-c1cccnc1C [Example 118, 9-ethoxy-5-(2-methylpyridin-3-yl)-7-(trifluoromethyl)imidazo[1,2-a]quinoxalin-4(5H)-one]	0.001 to 0.1	–	–	–	–	–
